Calls of active or inactive are those of the source. The rule behind the calls is not given here.

Series [1] concerns PANC-1. The series can be described thus: Induction of apoptosis in human PANC-1 cells at 2 uM incubated for 48 hrs by Annexin V-FITC/PI staining based flow cytometry relative to control. In kind it is functional.
In series [2] the test system is PANC-1. The series can be described thus: Induction of apoptosis in human PANC-1 cells at 2 uM incubated for 48 hrs in presence of JQ1 by Annexin V-FITC/PI staining based flow cytometry relative to control. Format: functional.
Series [3] has as its system PANC-1. The series can be described thus: Induction of cell cycle arrest in human PANC-1 cells assessed as accumulation at S phase at 0.12 uM incubated for 24 hrs by PI staining based flow cytometry (reference value: 38.94 %). In kind it is functional.
Series [4] deals with PANC-1. The series is described as follows: Induction of DNA damage in human PANC-1 cells assessed as increase in gamma-H2AX level at 1 uM in presence of OL by Western blot analysis. In kind it is functional, cell-based.
The test system of series [5] is PANC-1. The series is described as follows: Induction of apoptosis in human PANC-1 cells assessed as viable cells at 1 uM incubated for 48 hrs by Annexin V-FITC/PI staining based flow cytometry (reference value: 91.64 %). Format: functional. The settings on record: read-out: Activity.
The test system of series [6] is PANC-1. The series can be described thus: Induction of apoptosis in human PANC-1 cells assessed as viable cells at 0.5 uM incubated for 48 hrs by Annexin V-FITC/PI staining based flow cytometry (reference value: 91.64 %). Format: functional. The settings on record: read-out: Activity.
The nature of series [7]: Toxicity in BALB/c mouse xenografted with human PANC-1 cells assessed as animal mortality at 20 mg/kg, ip for 4 weeks administered for 5 days consecutively and 2 days without treatment on every week in presence of OL. Format: organism-based. To be noted: in vivo, 672 h.
Series [8] can be described thus: Toxicity in BALB/c mouse xenografted with human PANC-1 cells assessed as pathological changes in heart at 20 mg/kg, ip for 4 weeks administered for 5 days consecutively and 2 days without treatment on every week by H and E staining based analysis. Format: organism-based. The settings on record: in vivo, 672 h.
The subject of series [9] is PANC-1. The series can be described thus: Induction of apoptosis in human PANC-1 cells assessed as late apoptotic cells at 0.5 uM incubated for 48 hrs by Annexin V-FITC/PI staining based flow cytometry (reference value: 3.87 %). Format: functional.
Series [10] concerns PANC-1. The series is described as follows: Induction of cell cycle arrest in human PANC-1 cells assessed as accumulation at G2 phase at 0.25 uM incubated for 24 hrs by PI staining based flow cytometry (reference value: 9.36 %). In kind it is functional.
Series [11] deals with PANC-1. The series can be described thus: Induction of apoptosis in human PANC-1 cells assessed as necrotic cells at 1 uM incubated for 48 hrs by Annexin V-FITC/PI staining based flow cytometry (reference value: 3.09 %). In kind it is functional.
Series [12] is described as follows: Toxicity in BALB/c mouse xenografted with human PANC-1 cells assessed as drug tolerance at 20 mg/kg, ip for 4 weeks administered for 5 days consecutively and 2 days without treatment on every week. In kind it is organism-based. To be noted: in vivo, 672 h.
Series [13] relates to PANC-1. The series is described as follows: Induction of cell cycle arrest in human PANC-1 cells assessed as accumulation at G1 phase at 0.12 uM incubated for 24 hrs by PI staining based flow cytometry (reference value: 51.70 %). In kind it is functional.
Series [14] has as its system PANC-1. The series can be described thus: Induction of apoptosis in human PANC-1 cells assessed as viable cells at 0.12 uM incubated for 48 hrs by Annexin V-FITC/PI staining based flow cytometry (reference value: 91.64 %). Format: functional. The settings on record: read-out: Activity.
The subject of series [15] is PANC-1. The series can be described thus: Antitumor activity against human PANC-1 cells xenografted in BALB/c mouse assessed as inhibition of tumor weight at 20 mg/kg, ip for 4 weeks administered for 5 days consecutively and 2 days without treatment on every week in presence of OL. Format: functional, organism-based.
The subject of series [16] is PANC-1. The series can be described thus: Induction of cell cycle arrest in human PANC-1 cells assessed as accumulation at G1 phase at 0.5 uM incubated for 24 hrs by PI staining based flow cytometry (reference value: 51.70 %). In kind it is functional.
Series [17] concerns PANC-1. The series can be described thus: Induction of apoptosis in human PANC-1 cells assessed as late apoptotic cells at 1 uM incubated for 48 hrs by Annexin V-FITC/PI staining based flow cytometry (reference value: 3.87 %). In kind it is functional.
The test system of series [18] is PANC-1. The series can be described thus: Induction of cell cycle arrest in human PANC-1 cells assessed as accumulation at G2 phase at 1 uM incubated for 24 hrs in presence of OL by PI staining based flow cytometry (reference value: 9.36 %). Format: functional.
Series [19] deals with PANC-1. The series is described as follows: Induction of apoptosis in human PANC-1 cells assessed as early apoptotic cells at 0.5 uM incubated for 48 hrs by Annexin V-FITC/PI staining based flow cytometry (reference value: 1.41 %). Format: functional.
Series [20] concerns PANC-1. The series can be described thus: Induction of cell cycle arrest in human PANC-1 cells assessed as accumulation at G1 phase at 1 uM incubated for 24 hrs by PI staining based flow cytometry (reference value: 51.70 %). Format: functional.
In series [21] the test system is PANC-1. The series is described as follows: Antitumor activity against human PANC-1 cells xenografted in BALB/c mouse assessed as reduction in tumor growth at 20 mg/kg, ip for 4 weeks administered for 5 days consecutively and 2 days without treatment on every week in presence of OL. In kind it is functional, organism-based.
For series [22], the system named is PANC-1. The series can be described thus: Induction of apoptosis in human PANC-1 cells assessed as necrotic cells at 0.25 uM incubated for 48 hrs by Annexin V-FITC/PI staining based flow cytometry (reference value: 3.09 %). In kind it is functional.
Series [23] is described as follows: Toxicity in BALB/c mouse xenografted with human PANC-1 cells assessed as pathological changes in spleen at 20 mg/kg, ip for 4 weeks administered for 5 days consecutively and 2 days without treatment on every week by H and E staining based analysis. Format: organism-based. The settings on record: in vivo, 672 h.
Series [24] can be described thus: Toxicity in BALB/c mouse xenografted with human PANC-1 cells assessed as animal mortality at 20 mg/kg, ip for 4 weeks administered for 5 days consecutively and 2 days without treatment on every week. Format: organism-based. To be noted: in vivo, 672 h.
Series [25] concerns PANC-1. The series is described as follows: Anti-migration activity in human PANC-1 cells at 1 uM in presence of OL incubated for 24 hrs by wound healing assay. Format: functional, cell-based.
For series [26], the system named is PANC-1. The series can be described thus: Induction of cell cycle arrest in human PANC-1 cells assessed as accumulation at G1 phase at 0.25 uM incubated for 24 hrs by PI staining based flow cytometry (reference value: 51.70 %). In kind it is functional.
Series [27] has as its system PANC-1. The series is described as follows: Induction of cell cycle arrest in human PANC-1 cells assessed as accumulation at G2 phase at 1 uM incubated for 24 hrs by PI staining based flow cytometry (reference value: 9.36 %). Format: functional.
Series [28] relates to PANC-1. The series can be described thus: Induction of DNA damage in human PANC-1 cells assessed as increase in gamma-H2AX level at 0.6 to 10 uM incubated for 48 hrs by Western blot analysis. To be noted: dose 0.6-10 µM. In kind it is functional, cell-based.
Series [29] deals with PANC-1. The series can be described thus: Induction of apoptosis in human PANC-1 cells assessed as increase in cleaved caspase-3 level at 2 uM incubated for 48 hrs in presence of JQ1 by Western blot analysis. Format: functional, cell-based.
Series [30] concerns PANC-1. The series can be described thus: Anti-migration activity in human PANC-1 cells at 2 uM in presence of JQ1 incubated for 24 hrs by transwell assay relative to control. In kind it is functional.
In series [31] the test system is PANC-1. The series can be described thus: Induction of DNA damage in human PANC-1 cells assessed as increase in gamma-H2AX level at 2 uM in presence of JQ1 by immunofluorescence based analysis. Format: functional, cell-based.
The subject of series [32] is PANC-1. The series is described as follows: Anti-invasive activity in human PANC-1 cells at 2 uM in presence of JQ1 incubated for 48 hrs by Matrigel assay relative to control. In kind it is functional.
In series [33] the test system is PANC-1. The series can be described thus: Synergistic inhibition of colony formation in human PANC-1 cells at 2 uM incubated for 14 days in presence of JQ1 by crystal violet staining based analysis. In kind it is functional, cell-based. To be noted: time 14.0 day.

As for `O=C(c1cc(Cc2n[nH]c(=O)c3ccccc23)ccc1F)N1CCN(C(=O)C2CC2)CC1` [OLAPARIB], the Activity stood at 8.1% in [1] and 26.9% in series [2].
In the case of `Cc1sc2c(c1C)C(c1ccc(Cl)cc1)=N[C@@H](CC(=O)OC(C)(C)C)c1nnc(C)n1-2`, the Activity in series [3] is 40.51%; in series [7], “Non-toxic”; in series [8] it was “Non-toxic”; in [9], 10.08%; in series [10] it was 12.15%; in series [11], 4.54%. In addition, the Activity entry is reported as “Non-toxic” in [12]; 46.24% in [13]; 53.78% in series [16]; 9.46% in [17]; 15.74% in [18]; 3.52% in [19]. Further, the Activity in series [20] is reported as 58.49%; in series [22] it was 2.48%; in series [23], “Non-toxic”; in series [24], “Non-toxic”; in [26], 48.96%; in series [27] it was 10.75%. For the same compound, the result in [4], in [21] and in series [25] was Active. Besides, the viability at 1 µM in series [5] was 80.3%. Besides, the viability at 0.5 µM in series [6] was 82.8%. The viability at 0.12 µM in series [14] stood at 90.2%. Also, in [15], the inhibition entry is “Active”.
`O=C1CCC(N2C(=O)c3cccc(NC(=O)CNCCCCCCCCCCC(=O)N4CCN(C(=O)c5cc(Cc6n[nH]c(=O)c7ccccc67)ccc5F)CC4)c3C2=O)C(=O)N1` (stereo not drawn): the result in [28], in series [29] and in [31] was Active. For the same compound, the Activity is 84.4% in [30] and 12.4% in [32]. In [33], the inhibition entry is “Active”.

These data come from ChEMBL document CHEMBL6096630, “Enhancing therapeutic efficacy in homologous recombination-proficient pancreatic cancer via the combination of PARP1-PROTAC and a BRD4 inhibitor” (Bioorg Med Chem, 2024).
